# Results taken from patent US12090195B2 (priority 2018, dated 2024).
# Experiments:
# [1] = system: mice; settings: mouse, in vivo, ip; cited from earlier work
# [2] = system: six microorganisms (bacteria, yeast, fungus); assay type: cell-based
SMILES,LD50 [1],antimicrobial activity against yeast and fungi [2]
COC(=O)c1ccc(O)cc1 [methyl paraben],1000 mg/kg,
"OCCOc1ccccc1 [Combination 2-PE, 2-Phenoxyethanol]",,weaker antimicrobial activity than Thiomersal
